Reference: patent publication US20240336642A1 (The General Hospital Corporation, priority 2021, published 2024)
Counter-ions that a name gives are not always drawn.

Assays:
[1] = Aqueous solubility of exemplified compounds (Example 3); type: physicochemical; conditions: for Sol: aqueous solubility
[2] = Solubility in formulation vehicles (Solutol HS-15/PEG400, Captisol); type: physicochemical; conditions: for solution concentration achieved: 10% Solutol/90% PEG400; for solubility: aqueous with cosolvent or surfactant or cyclodextrin
Protocol: Combinations of Solutol HS-15 (also known as Kolliphor HS-15) with PEG400 provided a good vehicle to solubilize the tested compounds. Specifically, 10% Solutol/90% PEG400 was used to prepare 20 mg/ml solutions of compound 1, compound 44, and compound 32. 10% Solutol/15% H2O/[…] led to 10 mg/ml solutions of the tested compounds.
(§1) 20 mg/ml were obtained in 20% Captisol, allowing for intravenous delivery in the mouse stroke model.

[3] = Metabolic stability of exemplified compounds (Example 4); type: in vitro ADME
[4] = tested on: experimental stroke model in mice (MCAO); assay: Mouse stroke model, filament middle cerebral artery occlusion (MCAO), infarct size; type: in vivo
Protocol: Studies were carried out in experimental stroke model in mice, using the filament model of middle cerebral artery occlusion (MCAO). For intraperitoneal delivery, compounds were dissolved in DMSO. A number of exemplified compounds were able to reduce infarct size when given at a dosage of 40 mg/kg.
40 mg/kg cmpd. 1 were given i.p. at time of reperfusion. Infarct size was measured at 24 hours after 60 minutes MCAO.
MCAO (Experimental Middle Cerebral Artery Ischemia and Functional Recovery) experiment: 40 mg/kg of compound delivered intraperitoneally 2 h post reperfusion, 60 minutes MCAO, sacrifice at 24 h, infarct size determined by TTC staining.

h12/15-LOX = h12/15-LOX (Homo sapiens (Human), UniProt P16050); assay: 12/15-LOX enzyme inhibition IC50 assay (Examples 1 and 2); type: biochemical; conditions: for Emax / Max % inhibition: h12/15-LOX; for Emax: read-out: Max % inhibition
Protocol: Enzyme was then added to the cuvettes. […] The % inhibition for each test compound concentration were calculated as follows: […]

[5] = Hydrolysis of prodrug in plasma; type: in vitro ADME
Protocol: as §1

[6] = In vivo conversion of prodrug to parent compound
Protocol: FIG. 1 contains chemical schemes showing in vivo conversion of prodrug compounds 51, 52, 53 to their parent compounds 22, 1, and 1, respectively.
as §1

Sequence of h12/15-LOX (P16050 whole entry): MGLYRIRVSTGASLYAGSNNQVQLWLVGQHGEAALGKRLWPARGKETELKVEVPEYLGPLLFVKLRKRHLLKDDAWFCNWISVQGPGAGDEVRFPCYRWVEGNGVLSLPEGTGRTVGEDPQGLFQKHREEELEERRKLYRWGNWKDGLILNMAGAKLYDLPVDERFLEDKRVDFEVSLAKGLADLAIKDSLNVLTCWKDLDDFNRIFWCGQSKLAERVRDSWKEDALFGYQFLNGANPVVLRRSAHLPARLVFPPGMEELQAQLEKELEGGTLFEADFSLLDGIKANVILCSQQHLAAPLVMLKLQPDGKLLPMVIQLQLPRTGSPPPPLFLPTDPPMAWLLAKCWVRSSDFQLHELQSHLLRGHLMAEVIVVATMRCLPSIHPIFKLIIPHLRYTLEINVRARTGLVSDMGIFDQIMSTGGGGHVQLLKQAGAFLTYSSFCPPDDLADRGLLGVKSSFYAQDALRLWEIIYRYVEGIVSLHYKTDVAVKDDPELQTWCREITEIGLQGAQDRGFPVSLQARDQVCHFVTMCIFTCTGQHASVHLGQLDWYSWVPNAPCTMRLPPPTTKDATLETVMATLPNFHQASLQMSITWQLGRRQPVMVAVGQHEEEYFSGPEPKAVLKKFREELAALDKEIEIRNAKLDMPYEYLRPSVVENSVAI

| SMILES | Sol [1] | Extr (EH) ([3]; Human liver microsomes) | microsomal CLint ([3]; Human liver microsomes) | Extr (EH) ([3]; Mouse liver microsomes) | microsomal CLint ([3]; Mouse liver microsomes) | Extr (EH) ([3]; Rat liver microsomes) | microsomal CLint ([3]; Rat liver microsomes) | IC50 (h12/15-LOX) | Emax (h12/15-LOX) | further results |
| --- | --- | --- | --- | --- | --- | --- | --- | --- | --- | --- |
| COCCOCCNc1oc(-c2cc(Cl)cc(Cl)c2Cl)nc1C#N [Compound 32, 5-((2-(2-Methoxyethoxy)ethyl)amino)-2-(2,3,5-trichlorophenyl) oxazole-4-carbonitrile] | ++ (“++” 10-20 μM) | * (“*” <50%) | < 20 µL/min/mg | * (“*” <50%) | < 20 µL/min/mg | * (“*” <50%) | < 20 µL/min/mg | 610 nM | 96% | solution concentration achieved [2]: 20 mg/mL; infarct size reduction ([4]; 40 mg/kg intraperitoneally 2 h post reperfusion, 60 minutes MCAO, sacrifice at 24 h, TTC staining, listed as Cmpd. 32): 31.8%; infarct size reduction ([4]; 40 mg/kg intraperitoneally 2 h post reperfusion, 60 minutes MCAO, sacrifice at 24 h, TTC staining, listed as compound 32): 31.8% |
| N#Cc1nc(-c2cc(Cl)cc(Cl)c2Cl)oc1NCC#CCOCc1ccccc1 [Compound 43, 5-((4-(Benzyloxy)but-2-yn-1-yl)amino)-2-(2,3,5-trichlorophenyl)oxazole-4-carbonitrile] | + (“+” < 10 μM) | ** (“**” 50-100%) | 100 to 200 µL/min/mg | ** (“**” 50-100%) | 20 to 100 µL/min/mg | ** (“**” 50-100%) | 20 to 100 µL/min/mg | 230 nM | 93% | – |
| [2H]C([2H])([2H])Nc1oc(-c2cc(Cl)cc(Cl)c2Cl)nc1C#N [Compound 44, 5-((methyl-d3)amino)-2-(2,3,5-trichlorophenyl) oxazole-4-carbonitrile] | – | – | – | – | – | – | – | 90 nM | 91% | solution concentration achieved [2]: 20 mg/mL; infarct size reduction ([4]; 40 mg/kg intraperitoneally 2 h post reperfusion, 60 minutes MCAO, sacrifice at 24 h, TTC staining): 29.6% |
| COC/C=C/CNc1oc(-c2cc(Cl)cc(Cl)c2Cl)nc1C#N [Compound 45, (E)-5-((4-Methoxybut-2-en-1-yl)amino)-2-(2,3,5-trichlorophenyl)oxazole-4-carbonitrile] | + (“+” < 10 μM) | ** (“**” 50-100%) | 20 to 100 µL/min/mg | ** (“**” 50-100%) | 100 to 200 µL/min/mg | ** (“**” 50-100%) | 20 to 100 µL/min/mg | 190 nM | 98% | – |
| COCC/C=C/CNc1oc(-c2cc(Cl)cc(Cl)c2Cl)nc1C#N [Compound 46, (E)-5-((5-Methoxypent-2-en-1-yl)amino)-2-(2,3,5-trichlorophenyl)oxazole-4-carbonitrile] | + (“+” < 10 μM) | ** (“**” 50-100%) | 20 to 100 µL/min/mg | ** (“**” 50-100%) | 100 to 200 µL/min/mg | ** (“**” 50-100%) | 20 to 100 µL/min/mg | 210 nM | 95% | – |
| N#Cc1nc(-c2cc(Cl)cc(Cl)c2Cl)oc1NC/C=C/COCc1ccccc1 [Compound 47, (E)-5-((4-(Benzyloxy)but-2-en-1-yl)amino)-2-(2,3,5-trichlorophenyl)oxazole-4-carbonitrile] | + (“+” < 10 μM) | ** (“**” 50-100%) | 100 to 200 µL/min/mg | ** (“**” 50-100%) | 100 to 200 µL/min/mg | ** (“**” 50-100%) | 100 to 200 µL/min/mg | 230 nM | 98% | – |
| COCCOCCCCNc1oc(-c2cc(Cl)cc(Cl)c2Cl)nc1C#N [Compound 48, 5-((4-(2-Methoxyethoxy)butyl)amino)-2-(2,3,5-trichlorophenyl)oxazole-4-carbonitrile] | + (“+” < 10 μM) | ** (“**” 50-100%) | – | ** (“**” 50-100%) | – | ** (“**” 50-100%) | – | 620 nM | – | CLint ([3]; Human liver microsomes): ++ (“++” 20-100 μL/min/mg); CLint ([3]; Mouse liver microsomes): +++ (“+++” 100-200 μL/min/mg); CLint ([3]; Rat liver microsomes): ++ (“++” 20-100 μL/min/mg); Max % inhibition (h12/15-LOX): 100% |
| CC(C)OCCOCCNc1oc(-c2cc(Cl)cc(Cl)c2Cl)nc1C#N [Compound 49, 5-((2-(2-Isopropoxyethoxy)ethyl)amino)-2-(2,3,5-trichlorophenyl)oxazole-4-carbonitrile] | + (“+” < 10 μM) | * (“*” <50%) | < 20 µL/min/mg | ** (“**” 50-100%) | 20 to 100 µL/min/mg | ** (“**” 50-100%) | 20 to 100 µL/min/mg | 660 nM | 95% | – |
| COCCOCCOCCNc1oc(-c2cc(Cl)cc(Cl)c2Cl)nc1C#N [Compound 50, 5-((2-(2-(2-Methoxyethoxy)ethoxy)ethyl)amino)-2-(2,3,5-trichlorophenyl)oxazole-4-carbonitrile] | +++ (“+++” 20-50 μM) | ** (“**” 50-100%) | – | ** (“**” 50-100%) | – | ** (“**” 50-100%) | – | 890 nM | – | CLint ([3]; Human liver microsomes): ++ (“++” 20-100 μL/min/mg); CLint ([3]; Mouse liver microsomes): ++ (“++” 20-100 μL/min/mg); CLint ([3]; Rat liver microsomes): ++ (“++” 20-100 μL/min/mg); Max % inhibition (h12/15-LOX): 99% |
| N#Cc1nc(-c2cc(Cl)cc(Cl)c2Cl)oc1NCCCCCOP(=O)(O)O [Compound 51, 5-((4-cyano-2-(2,3,5-trichlorophenyl)oxazol-5-yl)amino) pentyl dihydrogen phosphate] | – | – | – | – | – | – | – | > 20000 nM | – | aqueous solubility versus parent compound [1]: high aqueous solubility versus parent compound 22; hydrolysis in plasma [5]: susceptible to hydrolysis in plasma |
| CN(C)CCCOC(=O)N(C)c1oc(-c2cc(Cl)cc(Cl)c2Cl)nc1C#N [Compound 52, 3-(dimethylamino) propyl (4-cyano-2-(2,3,5-trichlorophenyl)oxazol-5-yl)(methyl) carbamate hydrochloride] | – | – | – | – | – | – | – | 1400 nM | – | solubility ([2]; 20% Captisol): 20 mg/mL; solubility ([2]; 50% Captisol solution): 27 mg/mL; infarct size reduction ([4]; 40 mg/kg i.v. in 50% Captisol, immediately after reperfusion, 24 h, hydrochloride): 31.7%; infarct size reduction ([4]; 40 mg/kg i.v. in 50% Captisol, immediately after reperfusion, 24 h, listed as Cmpd. 52, hydrochloride): 31.7%; in vivo processing of prodrug [6]: processed to the parent molecule, compound 1 |
